One molecule from ChEMBL document CHEMBL1150071, “Konbamidin, a new indole alkaloid from the Okinawan marine sponge Ircinia sp” (J Nat Prod, 1994) can be followed below.

In brackets after ≈: the same amount, converted by molar mass.

In this assay the test system is HeLa. Nature of the assay: Cytotoxicity against human HeLa cells. It counts as functional, cell-based.

On to `O=C(O)CN[C@H](Cc1c[nH]c2ccccc12)C(=O)O` [KONBAMIDIN], for which the midpoint of inhibition, the IC50, lay at 5.4 µg/mL (≈ 20.6 µM).

For orientation: IC50 means the concentration needed to halve the response being measured.
